# Values of other authors in patent US20030092774A1, “Methods for treating neoplastic, angiogenic, vascular, fibroblastic, and/or immunosuppressive iregularities of the eye and/or joint via administration of combretastatin based medicaments, and iontophoretic devices for delivering combretastatin based medicaments” (priority 2001, published 2003).
smiles,measurement,value
"COc1ccc(/C=C\c2cc(OC)c(OC)c(OC)c2)cc1O [combretastatin-A4, (cis)-1-(3′,4′,5′,-trimethoxyphenyl)-2-(3 ″-hydroxy-4″-methoxyphenyl)ethene]",solubility in aqueous solution,practically insoluble
